# Test results reported in US12630594B2, “Allergy antigen and epitope for same” (HOYU CO., LTD., priority 2017, dated 2026).
# System: IgE antibodies from patients
# Assay: Epitope mapping (3): alanine scanning
# Parameters: species or system human
# Settings: positions numbered within the region important for binding; no influence on IgE binding when substituted by alanine
# Procedure: From the amino acid sequences identified above in (A), a library of peptide fragments in which N-terminal amino acids were substituted one by one by alanine according to a technique called alanine scanning (Non Patent Literature 5) was prepared by the same technique as described above. The presence or absence of binding of an IgE antibody present in the serum of a patient and a non-fish-allergic subject to each peptide fragment was measured by the same technique as described above. Amino acids at positions where the binding activity against IgE antibodies from patients were lost or decreased by the substitution by alanine while binding activity against IgE antibodies from non-fish-allergic subjects arose were confirmed as amino acids important for exertion of original antigenicity, or amino acids influencing exertion of original antigenicity.
# Chemiluminescence intensity in images obtained by measurement was converted into a numeric value in the same manner as in (A) using ImageQuant TL (GE Healthcare). When values obtained using the sequences (SEQ ID NOs: 150-204) that were of the peptides confirmed to bind to an IgE antibody in a patient specific manner from the images obtained from results about the serum of 5 patients and served as the basis of overlapping were defined as 100%, it was determined that: a peptide having a value of less than 20% had no binding activity against IgE antibodies; a peptide having a value of 20% or more and less than 50% had binding activity, albeit poor, against IgE antibodies; a peptide having a value of 50% or more and less than 70% had binding activity, albeit somewhat poor, against IgE antibodies; a peptide having a value of 70% or more and less than 90% had equivalent binding activity against IgE antibodies; and a peptide having a value of 90% or more had almost equivalent or good binding activity against IgE antibodies and was thus a peptide had remaining binding activity against IgE antibodies.
# By this analysis, common sequences important for exertion of original antigenicity were found in regions important for binding to IgE antibodies from patients, in the sequences serving as the basis of overlapping.
row,Substance,Non-binding-influencing amino acid in region important for binding
1,3 (SCFYHAFAGAEQAET; epitope) [compound 3],2
2,12 (EAEQYKAADDVQRDK; heat shock cognate 70 kDa protein epitope) [compound 12],2
3,13 (KLSDEDKQKILDKCN; epitope) [compound 13],4
4,18 (YYGYNGAFRCLVEDA; epitope) [compound 18],2
5,19 (RYVKKVGEKINIVIP; epitope) [compound 19],3
6,26 (VILIKKAGDGSKKIK; epitope) [compound 26],3-5
7,30 (TVTALDFREGKEFKD; epitope) [compound 30],2-4
8,31 (YNSMEQLCINFTNEK; epitope) [compound 31],2
9,38 (LKATKKKKKPVVDEE; epitope) [compound 38],2
10,44 (YTFIPDGYALSLSAK; epitope) [compound 44],2-4
11,51 (DGDKSRYLGKGTVKA; epitope) [compound 51],7
12,52 (YRHIADLAGHKDVIL; epitope) [compound 52],2-4
13,53 (NLKNVIKAKYGKDAT; epitope) [compound 53],3-6
14,"SEQ ID NO: 207: region important for binding, amino acids at positions 1-10 of epitope 1 (SEQ ID NO: 150) (SGERLPKPDK; epitope)",2-6
15,"SEQ ID NO: 210: region important for binding, amino acids at positions 9-14 of epitope 1 (SEQ ID NO: 150) (DKGKMR; epitope)",3-5

# System: IgE antibody present in the serum of a fish-allergic patient
# Assay: Epitope mapping (1): peptide array of overlapping 15-amino-acid peptides
# Assay type: binding, human
# Settings: average of 5 patients / average of 4 non-fish-allergic subjects at least 1.5, Mann-Whitney U test
# Procedure: Epitope mapping was carried out using a library of overlapping peptides (length: 15 amino acids) corresponding to the amino acid sequences identified as allergy components of fish and the amino acid sequences of known fish allergy antigens aldolase, β-enolase, and glyceraldehyde-3-phosphate dehydrogenase (Non Patent Literature 2-4). Specifically, the library of overlapping peptides was prepared on the basis of the amino acid sequences of SEQ ID NO: 2 for alpha-actinin-3, SEQ ID NO: 5 for EEF1A2 binding protein-like, SEQ ID NO: 10 for alpha-1,4-glucan phosphorylase, SEQ ID NO: 19 for elongation factor 2, SEQ ID NO: 26 for heat shock cognate 70 kDa protein, SEQ ID NO: 33 for serotransferrin, SEQ ID NO: 43 for myosin binding protein H-like, SEQ ID NO: 56 for desmin (fragment), SEQ ID NO: 61 for capping protein (actin filament) muscle Z-line beta, SEQ ID NO: 70 for myosin heavy chain, fast skeletal muscle-like, SEQ ID NO: 110 for glycogen phosphorylase, muscle form-like, SEQ ID NO: 121 for myosin-binding protein C, fast-type-like, SEQ ID NO: 138 for ATP synthase subunit beta, mitochondrial, SEQ ID NO: 144 for L-lactate dehydrogenase A chain-like, SEQ ID NO: 445 for aldolase, SEQ ID NO: 446 for β-enolase, and SEQ ID NO: 447 for glyceraldehyde-3-phosphate dehydrogenase.
# The peptides to be synthesized were shifted by 10 amino acids.
# For preparation of peptide arrays, the Intavis CelluSpots™ technique was used. Specifically, the peptide arrays were prepared by the following procedure: (1) synthesizing peptides of interest on amino-modified cellulose disks using an automated chemical synthesis apparatus (Intavis MultiPep RS), (2) dissolving the amino-modified cellulose disks to obtain a cellulose-bound peptide solution, and (3) spotting the cellulose-bound peptides onto coated glass slides. The details of each procedure are as described below.
# The presence or absence of binding, to each peptide fragment, of an IgE antibody present in the serum of a fish-allergic patient was measured through antigen-antibody reaction using the peptide arrays. The measurement was carried out according to the following procedure. • (1) The peptides were shaken at room temperature for 1 hour in PBST. • (2) The peptide arrays were shaken at overnight at room temperature in 5% serum/PBST. • (3) The peptide arrays were washed with a PBST solution (a PBS buffer containing 0.1% Tween 20 nonionic surfactant) for 5 minutes (×3). • (4) Anti-human IgE antibody-HRP(1:5,000, PBST) was added thereto, and the peptide arrays were shaken at room temperature for 1 hour. • (5) The peptide arrays were washed with a PBST solution for 5 minutes (×3). • (6) Pierce ECL Plus Western Blotting Substrate (produced by Thermo Fisher Scientific) was added thereto, and the peptide arrays were shaken at room temperature for 5 minutes. • (7) The chemiluminescence of the peptides treated as described above in (1) to • (6) was measured using Amersham Imager 600.
# Chemiluminescence intensity in images obtained by the measurement described above in (7) was converted into a numeric value using ImageQuant TL (GE Healthcare). The average value of numeric values determined from images obtained from results about the serum of 5 patients was divided by the average value of numeric values determined from images obtained from results about the serum of 4 non-fish-allergic subjects. It was determined that a peptide having a calculated value (average value of the patient group/average value of the non-fish-allergic subject group) of at least 1.5 and a significant difference of […] in the Mann-Whitney U test was a peptide bound to an IgE antibody in a patient-specific manner.
row,Substance,IgE antibody binding in a patient-specific manner
1,7 (GGYIQAVLDRNLCEN; epitope) [compound 7],bind in a patient-specific manner

# System: IgE antibodies from patients
# Assay: Epitope mapping (2): overlapping 10-amino-acid peptide fragments shifted by one amino acid
# Assay type: binding, human
# Settings: positions numbered within the 15-amino-acid epitope; serum of 5 patients
# Description: On the basis of the sequences (SEQ ID NOs: 150-154 for alpha-actinin-3, SEQ ID NO: 155 for EEF1A2 binding protein-like, SEQ ID NOs: 156 and 157 for alpha-1,4-glucan phosphorylase, SEQ ID NOs: 158 and 159 for elongation factor 2, SEQ ID NOs: 160-162 for heat shock cognate 70 kDa protein, SEQ ID NOs: 163-167 for serotransferrin, SEQ ID NOs: 168-171 for myosin binding protein H-like, SEQ ID NOs: 172-174 for desmin (fragment), SEQ ID NOs: 175-178 for capping protein (actin filament) muscle Z-line beta, SEQ ID NOs: 179-185 for myosin heavy chain, fast skeletal muscle-like, SEQ ID NO: 186 for glycogen phosphorylase, muscle form-like, SEQ ID NOs: 187-196 for myosin-binding protein C, fast-type-like, SEQ ID NO: 197 for ATP synthase subunit beta, mitochondrial, SEQ ID NO: 198 for L-lactate dehydrogenase A chain-like, SEQ ID NO: 199 for aldolase, SEQ ID NOs: 200-202 for β-enolase, and SEQ ID NOs: 203 and 204 for glyceraldehyde-3-phosphate dehydrogenase) of the peptides bound to an IgE antibody in serum in a patient-specific manner as described above in (A), a library of overlapping peptide fragments (length: 10 amino acids) was prepared using the sequences of the peptides and sequences in which sequences were added so as to flank each peptide in the amino acid sequences of allergen components (SEQ ID NO: 2 for alpha-actinin-3, SEQ ID NO: 5 for EEF1A2 binding protein-like, SEQ ID NO: 10 for alpha-1,4-glucan phosphorylase, SEQ ID NO: 19 for elongation factor 2, SEQ ID NO: 26 for heat shock cognate 70 kDa protein, SEQ ID NO: 33 for serotransferrin, SEQ ID NO: 43 for myosin binding protein H-like, SEQ ID NO: 56 for desmin (fragment), SEQ ID NO: 61 for capping protein (actin filament) muscle Z-line beta, SEQ ID NO: 70 for myosin heavy chain, fast skeletal muscle-like, SEQ ID NO: 110 for glycogen phosphorylase, muscle form-like, SEQ ID NO: 121 for myosin-binding protein C, fast-type-like, SEQ ID NO: 138 for ATP synthase subunit beta, mitochondrial, SEQ ID NO: 144 for L-lactate dehydrogenase A chain-like, SEQ ID NO: 445 for aldolase, SEQ ID NO: 446 for β-enolase, and SEQ ID NO: 447 for glyceraldehyde-3-phosphate dehydrogenase) comprising the sequences of the peptide. Epitope mapping was carried out using the library.
# The peptides to be synthesized were shifted by one amino acid.
# The library was prepared by the same procedure as described above in (A), and the presence or absence of binding of an IgE antibody present in the serum of a patient and a non-fish-allergic subject to each peptide fragment was measured by the same technique as described above. Amino acids at positions where the binding activity against IgE antibodies from patients were lost or decreased in the peptides shifted by one amino acid while binding activity against IgE antibodies from non-fish-allergic subjects arose were confirmed as amino acids adversely affecting the specificity of binding to IgE antibodies.
# Chemiluminescence intensity in images obtained by measurement was converted into a numeric value in the same manner as in (A) using ImageQuant TL (GE Healthcare). […]
row,Positions of amino acids of region important for binding in epitope,Substance
1,8-15,15 (YSGAFQCLKDGAGEV; epitope) [compound 15]
2,2-15,21 (KEVIDYKPTPFVEHD; epitope) [compound 21]
3,1-7,25 (DVGRSAEVHSKKTVL; epitope) [compound 25]
4,2-12,27 (IHVVEVQEKSSGRTA; epitope) [compound 27]
5,3-14,29 (DNQKYRQLQKELSQV; epitope) [compound 29]
6,7-15,31 (YNSMEQLCINFTNEK; epitope) [compound 31]
7,1-10,32 (LYPPPPPEDKAKKGG; epitope) [compound 32]
8,5-14,34 (EEDKVNTLTKAKTKL; epitope) [compound 34]
9,2-8,40 (TDLRGLLKRLKKMKT; epitope) [compound 40]
10,3-7,45 (GAPVTGYLMERKKKG; epitope) [compound 45]
11,2-13,46 (RQKYIRRVGDKINLT; epitope) [compound 46]
12,6-13,51 (DGDKSRYLGKGTVKA; epitope) [compound 51]
13,6-15,53 (NLKNVIKAKYGKDAT; epitope) [compound 53]

# Second part, the substance before the results:
row,Substance,Positions of amino acids of region important for binding in epitope
1,3 (SCFYHAFAGAEQAET; epitope) [compound 3],1-15
2,4 (TKLRLSNRPAFMPSE; epitope) [compound 4],1-15
